Results as given in article PMC5695911 (Cell Reports, 2017).
Like-named read-outs stand apart in the source and are kept apart here.

Assays:
[1] = test system: human glucagon receptor (hGCGR); assay type: cell-based
[2] = test system: protein kinase A (PKA), glucose-6-phosphatase (G6P), phosphorylase kinase (PKC-1), glycogen phosphorylase (GP), phosphoenolpyruvate carboxykinase (PECK); assay type: cell-based, human
[3] = test system: INS1 cells; assay type: cell-based, rat
[4] = test system: diabetic animal models (db/db and ob/ob mice); experiment: Administration of PG 1-61 to diabetic animal models; assay type: in vivo; settings: 1 pmol; db/db (12 weeks, n=5) and ob/ob mice (14-15 weeks, n=3)
[5] = test system: INS1 cells; experiment: cAMP accumulation in cultured rat β cells; assay type: cell-based
[6] = test system: human glucagon-like peptide 1 receptor (hGLP-1R); assay type: cell-based; settings: COS-7 cells
[7] = test system: rats; settings: i.v., 1 pmol, 20 min
[8] = test system: isolated rat pancreases; experiment: Isolated perfused rat pancreas, insulin secretion
[9] = test system: cultured human hepatocytes (HepG2); experiment: cAMP in cultured human hepatocytes; assay type: cell-based

RSLQDTEEKSRSFSASQADPLSDPDQMNEDKRHSQGTFTSDYSKYLDSRRAQDFVQWLMNT [PG 1-61]
fold decreased potency compared to native glucagon, hGCGR ([1]; from LogEC50 vs glucagon): 100 fold | agonist class at hGCGR ([1]; transiently transfected COS-7 cells): full agonist | protein levels of PKA, G6P, PKC-1, GP and PECK ([2]; 30-min incubation, 1,000 pM): significantly increased protein levels | protein levels of PKA, G6P, PKC-1, GP and PECK ([2]; 3 hr incubation, compared with 30 min): more pronounced effects | protein levels of the enzymes in siRNA-treated cells ([2]; siRNA GCGR-treated cells, 30-min incubation): tended to be lower | insulin release compared to PBS ([3]; 1 nM, p < 0.001): significantly stimulated insulin release | PG 1-61-induced insulin secretion after siRNA knockdown of rGCGR vs mock ([3]; 1 nM, p < 0.01): significantly blunted | insulin release compared to native glucagon ([3]; PG 1-61 1 nM): comparable to that of native glucagon | inhibition of glucagon secretion in diabetic animals [4]: not seem to inhibit the secretion of glucagon | accumulation of cAMP [5]: dose-dependently increased accumulation of cAMP | agonist class / potency in words at hGLP-1R [6]: very low potency | activation of hGLP-1R, in words ([6]; Figure 3B legend): but not the human glucagon-like peptide 1 receptor (hGLP-1R) | percent of Emax of GLP-1 reached at 1 μM, hGLP-1R ([6]; at a concentration of 1 μM): 38% | blood glucose, in words [7]: increased significantly | plasma amino acids (summed molarity) [7]: decreased significantly | plasma insulin ([7]; no increase with mannitol): increased transiently | insulin secretion, tAUC [8]: 3,534 ± 321 min × pM | stimulated increase in cAMP after siRNA knockdown of hGCGR vs siRNA control ([9]; HepG2, siRNA GCGR): attenuated | cAMP ([9]; HepG2, 10–1,000 pM): stimulated cAMP production dose-dependently
